Like-named read-outs stand apart in the source and are kept apart here.
Experiments:
Type in all cases: biochemical
[1] = biological target: Pim3 kinase (Homo sapiens, UniProt Q86V86); test: Pim3 ATP depletion assay
[2] = biological target: T1, human full length PKCE enzyme (Homo sapiens, UniProt Q02156); test: In vitro PKCE assay; details: 10 nM enzyme, 40 uM peptide substrate, 20 uM ATP, KinaseGlo Plus readout; read-out: PKCε IC50
T1 construct: human full length PKCE enzyme purchased from InVitrogen; purchased InVitrogen
T1 sequence (Q02156 1-737): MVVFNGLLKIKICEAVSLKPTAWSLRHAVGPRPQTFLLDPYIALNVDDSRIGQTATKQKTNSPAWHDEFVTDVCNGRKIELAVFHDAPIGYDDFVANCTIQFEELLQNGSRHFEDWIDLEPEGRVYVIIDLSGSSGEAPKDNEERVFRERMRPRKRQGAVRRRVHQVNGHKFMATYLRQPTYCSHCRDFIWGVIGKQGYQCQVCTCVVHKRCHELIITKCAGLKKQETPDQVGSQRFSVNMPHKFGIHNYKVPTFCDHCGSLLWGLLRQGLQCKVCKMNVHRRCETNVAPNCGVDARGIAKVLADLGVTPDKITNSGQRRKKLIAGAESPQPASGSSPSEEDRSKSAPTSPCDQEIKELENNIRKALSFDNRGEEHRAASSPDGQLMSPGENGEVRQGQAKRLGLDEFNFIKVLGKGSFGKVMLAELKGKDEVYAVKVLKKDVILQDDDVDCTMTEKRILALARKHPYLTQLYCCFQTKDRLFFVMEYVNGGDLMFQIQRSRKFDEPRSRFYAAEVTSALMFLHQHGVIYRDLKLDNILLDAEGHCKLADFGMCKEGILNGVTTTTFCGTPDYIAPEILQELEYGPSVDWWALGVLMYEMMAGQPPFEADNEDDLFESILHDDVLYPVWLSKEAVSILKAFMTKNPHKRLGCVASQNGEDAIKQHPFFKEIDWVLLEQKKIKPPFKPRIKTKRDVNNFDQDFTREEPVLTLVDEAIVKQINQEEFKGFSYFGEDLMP

[3] = biological target: Pim2 kinase (Homo sapiens, UniProt Q9P1W9); test: Pim2 ATP depletion assay;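 note: Luciferase-based luminescent readout of ATP remaining after PIM2 phosphorylates a BAD peptide, final 5 nM enzyme, 4 µM ATP, 10 µM peptide, 2.5% DMSO, run to roughly half ATP consumption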
[4] = biological target: Pim1 kinase (Homo sapiens, UniProt P11309); test: Pim1 ATP depletion assay;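 note: Luciferase-luciferin luminescence readout of residual ATP after PIM1 transfers phosphate to a peptide substrate, 40 µM ATP added, reaction run to roughly half ATP consumption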
[5] = Pim1 ATP depletion assay, read-out: IC50 (μM) PIM1
[6] = Pim1 ATP depletion assay, read-out: PIM1 IC50

Chain of Pim1 kinase (P11309 whole entry): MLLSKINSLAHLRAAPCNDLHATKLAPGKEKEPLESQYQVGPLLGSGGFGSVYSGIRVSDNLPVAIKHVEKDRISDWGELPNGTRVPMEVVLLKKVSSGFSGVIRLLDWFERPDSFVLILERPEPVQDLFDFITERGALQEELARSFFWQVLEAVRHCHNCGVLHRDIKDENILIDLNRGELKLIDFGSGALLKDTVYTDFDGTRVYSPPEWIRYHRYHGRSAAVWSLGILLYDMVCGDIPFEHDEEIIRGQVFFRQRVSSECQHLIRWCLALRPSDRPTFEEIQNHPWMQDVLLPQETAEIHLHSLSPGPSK
Chain of Pim2 kinase (Q9P1W9 whole entry): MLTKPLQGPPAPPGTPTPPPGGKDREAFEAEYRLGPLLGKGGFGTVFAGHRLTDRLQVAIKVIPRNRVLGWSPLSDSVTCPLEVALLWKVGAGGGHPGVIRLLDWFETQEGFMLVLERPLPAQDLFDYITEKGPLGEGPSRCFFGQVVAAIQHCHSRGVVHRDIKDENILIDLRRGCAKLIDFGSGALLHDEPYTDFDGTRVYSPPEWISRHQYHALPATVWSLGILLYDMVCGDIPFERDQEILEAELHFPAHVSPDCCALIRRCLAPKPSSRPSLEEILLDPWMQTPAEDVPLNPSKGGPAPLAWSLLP

Row | Structure (SMILES) | IC50 ([1]; read-out: IC50 (μM) PIM3) | IC50 [2] | IC50 ([3]; read-out: IC50 (μM) PIM2) | IC50 [4, 5] | IC50 ([1]; read-out: PIM3 IC50) | IC50 ([3]; read-out: PIM2 IC50) | IC50 [4, 6] | IC50 [4]
1 | NCCOc1ccncc1NC(=O)c1nccnc1N [Example 194, 3-amino-N-[4-(2-amino-ethoxy)pyridin-3-yl]pyrazine-2-carboxamide] | > 25 µM | > 25 µM | > 25 µM | > 25 µM | – | – | – | –
2 | Cn1cccc1-c1cnc(=O)[nH]c1NC(=O)c1nccnc1N [Example 139, 3-amino-N-[5-(1-methyl-1H-pyrrol-2-yl)-2-oxo-2,3-dihydro-pyrimidin-4-yl]pyrazine-2-carboxamide] | < 1 µM | < 1 µM | < 1 µM | < 1 µM | – | – | – | –
3 | Nc1ncc(-c2ccccc2C(F)(F)F)nc1C(=O)Nc1[nH]c(=O)ncc1N1CCCCC1 [Example 593, 3-amino-6-(2-trifluoromethyl-phenyl)-pyrazine-2-carboxylic acid (2-oxo-5-piperidin-1-yl-2,3-dihydro-pyrimidin-4-yl)-amide] | – | > 25 µM | – | – | < 1 µM | < 1 µM | < 1 µM | –
4 | Nc1ncc(Br)nc1C(=O)Nc1[nH]c(=O)ncc1N1CCC(C(F)(F)F)CC1 [Example 153, 3-amino-6-bromo-N-{2-oxo-5-[4-(trifluoromethyl)piperidin-1-yl]-2,3-dihydropyrimidin-4-yl}-pyrazine-2-carboxamide] | < 1 µM | > 25 µM | < 1 µM | < 1 µM | – | – | – | –
5 | Nc1nccnc1C(=O)Nc1cncnc1N1CCCCC1 [Example 128, 3-amino-N-(4-piperidin-1-yl-pyrimidin-5-yl)pyrazine-2-carboxamide] | 10 to 25 µM | > 25 µM | > 25 µM | 1 to 10 µM | – | – | – | –
6 | Nc1nccnc1C(=O)Nc1[nH]c(=O)ncc1-c1cccs1 [Example 137, 3-amino-N-[2-oxo-5-(2-thienyl)-2,3-dihydropyrimidin-4-yl]-pyrazine-2-carboxamide] | < 1 µM | < 1 µM | < 1 µM | < 1 µM | – | – | – | –
7 | Nc1nccnc1C(=O)Nc1[nH]c(=O)ncc1-c1nccs1 [Example 138, 3-amino-N-[2-oxo-5-(1,3-thiazol-2-yl)-2,3-dihydro-pyrimidin-4-yl]pyrazine-2-carboxamide] | < 1 µM | > 25 µM | < 1 µM | < 1 µM | – | – | – | –
8 | Nc1ncc(Br)nc1C(=O)Nc1[nH]c(=O)ncc1-c1ccco1 [Example 141, 3-amino-6-bromo-N-[5-(2-furyl)-2-oxo-2,3-dihydro-pyrimidin-4-yl]pyrazine-2-carboxamide] | < 1 µM | 1 to 10 µM | < 1 µM | < 1 µM | – | – | – | –
9 | Nc1nccnc1C(=O)Nc1[nH]c(=O)ncc1-c1ccccn1 [Example 140, 3-amino-N-(2-oxo-5-pyridin-2-yl-2,3-dihydropyrimidin-4-yl)-pyrazine-2-carboxamide] | < 1 µM | 1 to 10 µM | < 1 µM | < 1 µM | – | – | – | –
10 | Nc1nccnc1C(=O)Nc1[nH]c(=O)ncc1N1CCC(C(F)(F)F)CC1 [Example 152, 3-amino-N-{2-oxo-5-[4-(trifluoromethyl)piperidin-1-yl]-2,3-dihydropyrimidin-4-yl}-pyrazine-2-carboxamide] | < 1 µM | < 1 µM | < 1 µM | < 1 µM | – | – | – | –
11 | Cn1cccc1-c1cnc(=O)[nH]c1NC(=O)c1nc(Br)cnc1N [Example 144, 3-amino-6-bromo-N-[5-(1-methyl-1H-pyrrol-2-yl)-2-oxo-2,3-dihydropyrimidin-4-yl]-pyrazine-2-carboxamide] | – | 1 to 10 µM | – | – | – | – | – | –
12 | Nc1nccnc1C(=O)Nc1[nH]c(=O)ncc1N1CCC(F)CC1 [Example 149, 3-amino-N-[5-(4-fluoro-piperidin-1-yl)-2-oxo-2,3-dihydropyrimidin-4-yl]pyrazine-2-carboxamide] | – | 1 to 10 µM | – | – | – | – | – | –

Continued, values first:

Row | IC50 ([1]; read-out: IC50 (μM) PIM3) | IC50 [2] | IC50 ([3]; read-out: IC50 (μM) PIM2) | IC50 [4, 5] | IC50 ([1]; read-out: PIM3 IC50) | IC50 ([3]; read-out: PIM2 IC50) | IC50 [4, 6] | IC50 [4] | Structure (SMILES)
13 | < 1 µM | < 1 µM | < 1 µM | < 1 µM | – | – | – | – | Cc1ccccc1-c1cnc(N)c(C(=O)Nc2cnccc2N2CCCC(N)C2)n1 (stereo not shown) [Example 351, 3-amino-6-o-tolyl-pyrazine-2-carboxylic acid (3-amino-3,4,5,6-tetrahydro-2H-[1,4′]bi-pyridinyl-3′-yl)-amide]
14 | < 1 µM | 10 to 25 µM | < 1 µM | < 1 µM | – | – | – | – | Nc1ncc(-c2ccccc2OC(F)(F)F)nc1C(=O)Nc1[nH]c(=O)ncc1N1CCCC(N)C1 (stereo not shown) [Example 405, 3-amino-6-(2-trifluoro-methoxy-phenyl)-pyrazine-2-carboxylic acid [5-(3-amino-piperidin-1-yl)-2-oxo-2,3-dihydro-pyrimidin-4-yl]-amide]
15 | – | 1 to 10 µM | – | – | – | – | – | – | NC(=O)c1ccc(N2CCCCC2)c(NC(=O)c2nccnc2N)c1 [Example 129, 3-amino-N-(5-carbamoyl-2-piperidin-1-ylphenyl)pyrazine-2-carboxamide]
16 | < 1 µM | 10 to 25 µM | 1 to 10 µM | < 1 µM | – | – | – | – | Nc1cnc(C(=O)Nc2cnccc2N2CCCCC2)c(N)n1 [Example 312, 3,5-diamino-N-(4-(piperidin-1-yl)pyridin-3-yl)pyrazine-2-carboxamide]
17 | < 1 µM | < 1 µM | < 1 µM | < 1 µM | – | – | – | – | Nc1nccnc1C(=O)Nc1[nH]c(=O)ncc1N1CCCC(F)C1 (stereo not shown) [Example 154, 3-amino-N-[5-(3-fluoro-piperidin-1-yl)-2-oxo-2,3-dihydropyrimidin-4-yl]pyrazine-2-carboxamide]
18 | < 1 µM | < 1 µM | 1 to 10 µM | – | – | – | – | < 1 µM | NCC(=O)N1CCN(c2ccncc2NC(=O)c2nccnc2N)CC1 [Example 189, 3-amino-N-{4-[4-(amino-acetyl)piperazin-1-yl]pyridin-3-yl}pyrazine-2-carboxamide]
19 | < 1 µM | < 1 µM | < 1 µM | < 1 µM | – | – | – | – | N#Cc1ccccc1-c1cnc(N)c(C(=O)Nc2[nH]c(=O)ncc2N2CCCC(N)C2)n1 (stereo not shown) [Example 403, 3-amino-6-(2-cyano-phenyl)-pyrazine-2-carboxylic acid [5-(3-amino-piperidin-1-yl)-2-oxo-2,3-dihydro-pyrimidin-4-yl]-amide]
20 | < 1 µM | 10 to 25 µM | 1 to 10 µM | < 1 µM | – | – | – | – | N#Cc1ccc(N2CCCCC2)c(NC(=O)c2nccnc2N)c1 [Example 171, 3-amino-N-(5-cyano-2-(piperidin-1-yl)phenyl)pyrazine-2-carboxamide]
21 | – | > 25 µM | – | – | – | – | – | – | Nc1nccnc1C(=O)Nc1cnccc1N1CCC(N)C1 (stereo not shown) [Example 190, 3-amino-N-[4-(3-amino-pyrrolidin-1-yl)pyridin-3-yl]-pyrazine-2-carboxamide]
22 | – | 1 to 10 µM | – | – | – | – | – | – | Nc1ncc(-c2ccncc2)nc1C(=O)Nc1cnccc1N1CCCC(N)C1 (stereo not shown) [Example 354, 3-amino-6-pyridin-4-yl-pyrazine-2-carboxylic acid (3-amino-3,4,5,6-tetrahydro-2H-[1,4′]bipyridinyl-3′-yl)-amide]
23 | < 1 µM | – | < 1 µM | < 1 µM | – | – | – | – | Nc1cnc(-c2ccccc2F)nc1C(=O)Nc1cnccc1N1C[C@H](N)C[C@H](N)C1 [Example 247, 5-Amino-2-(2-fluoro-phenyl)-pyrimidine-4-carboxylic acid (3,5-diamino-3,4,5,6-tetrahydro-2H-[1,4′]bipyridinyl-3′-yl)-amide]
24 | – | – | – | – | < 1 µM | < 1 µM | < 1 µM | – | CCOc1ccc(F)c(-c2ncc(N)c(C(=O)Nc3cnccc3N3CCC[C@H](N)C3)n2)c1 [Example 548, 5-Amino-2-(5-ethoxy-2-fluoro-phenyl)-pyrimidine-4-carboxylic acid (3-amino-3,4,5,6-tetrahydro-2H-[1,4′]bipyridinyl-3′-yl)-amide]
25 | – | – | – | – | < 1 µM | < 1 µM | < 1 µM | – | Nc1ccc(-c2c(F)cccc2F)nc1C(=O)Nc1cnccc1N1CC(N)CC(CO)C1 (stereo not shown) [Example 576, 3-Amino-6-(2,6-difluoro-phenyl)-pyridine-2-carboxylic acid (5-amino-3-hydroxymethyl-3,4,5,6-tetrahydro-2H-[1,4′]bipyridinyl-3′-yl)-amide]
26 | – | – | – | – | < 1 µM | < 1 µM | < 1 µM | – | Nc1ccc(-c2ccccc2F)nc1C(=O)Nc1cnccc1-c1ccncc1 [Example 606, 3-amino-N-4,4′-bipyridin-3-yl-6-(2-fluorophenyl)-pyridine-2-carboxamide]
27 | – | – | – | – | < 1 µM | < 1 µM | < 1 µM | – | N#Cc1ccc(-c2ccc(N)c(C(=O)Nc3cnccc3N3CCC[C@H](N)C3)n2)c(F)c1 [Example 686, 3-Amino-6-(4-cyano-2-fluoro-phenyl)-pyridine-2-carboxylic acid (3-amino-3,4,5,6-tetra-hydro-2H-[1,4′]bipyridinyl-3′-yl)-amide]

Reference: patent US20140249135A1, “PIM KINASE INHIBITORS AND METHODS OF THEIR USE” (NOVARTIS AG, priority 2007, published 2014)
